# Laboratory results from ChEMBL document CHEMBL5226352, “Inhibition of AlkB Nucleic Acid Demethylases: Promising New Epigenetic Targets” (J Med Chem, 2021).
# Key:
# [1] = target: T1, RNA demethylase ALKBH5 (Homo sapiens, UniProt Q6P6C2); assay: Inhibition of human ALKBH5 (74 to 294 residues) expressed in Escherichia coli BL21(DE3) V2R-pRARE cells using biotin labeled m6A-ss-RNA with UACACUCGAUCUGG(m6A)CUAAAGCUGCUC sequence as substrate incubated for 1 hr by TopCount scintillation counting method
# [2] = target: T2, Alpha-ketoglutarate-dependent dioxygenase AlkB (Escherichia coli (strain K12), UniProt P05050); assay: Inhibition of Escherichia coli AlkB DNA repair activity using 1-methyladenine with GC-1meA-AGGTCCCGTAGTGCG sequence as substrate by FDH coupled assay
# T2 sequence (P05050 whole entry): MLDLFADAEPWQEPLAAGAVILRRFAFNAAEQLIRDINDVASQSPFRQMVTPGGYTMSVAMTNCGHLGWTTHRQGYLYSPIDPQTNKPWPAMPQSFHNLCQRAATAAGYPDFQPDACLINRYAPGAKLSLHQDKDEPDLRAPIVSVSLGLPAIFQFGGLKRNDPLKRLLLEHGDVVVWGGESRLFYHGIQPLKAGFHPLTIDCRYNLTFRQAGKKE
# [3] = target: T3, Alpha-ketoglutarate-dependent dioxygenase alkB homolog 3 (Homo sapiens, UniProt Q96Q83); assay: Inhibition of human ALKBH3 demethylase activity by restriction endonuclease digestion assay
# T3 sequence (Q96Q83 whole entry): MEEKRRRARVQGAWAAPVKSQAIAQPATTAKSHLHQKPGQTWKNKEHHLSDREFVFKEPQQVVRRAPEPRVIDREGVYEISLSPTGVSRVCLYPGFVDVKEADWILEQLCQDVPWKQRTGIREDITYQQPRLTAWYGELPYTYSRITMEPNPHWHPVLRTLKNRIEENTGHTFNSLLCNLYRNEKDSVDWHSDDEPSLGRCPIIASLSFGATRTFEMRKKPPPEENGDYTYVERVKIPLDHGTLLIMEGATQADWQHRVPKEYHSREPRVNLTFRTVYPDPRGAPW
# [4] = target: T4, DNA oxidative demethylase ALKBH2 (Homo sapiens, UniProt Q6NS38); assay: Inhibition of human ALKBH2 demethylase activity by restriction endonuclease digestion assay
# T4 sequence (Q6NS38 whole entry): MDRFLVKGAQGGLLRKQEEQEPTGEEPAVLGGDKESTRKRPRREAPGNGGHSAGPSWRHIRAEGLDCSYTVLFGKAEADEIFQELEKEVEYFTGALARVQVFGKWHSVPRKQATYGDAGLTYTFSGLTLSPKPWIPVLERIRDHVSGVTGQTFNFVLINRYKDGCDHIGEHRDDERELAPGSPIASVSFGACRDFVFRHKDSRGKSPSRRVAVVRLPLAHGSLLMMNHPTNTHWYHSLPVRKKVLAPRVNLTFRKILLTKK
# [5] = target: T1, RNA demethylase ALKBH5; assay: Inhibition of N-terminal His-tagged human ALKBH5 (66 to 292 residues)
# [6] = target: T5, Alpha-ketoglutarate-dependent dioxygenase FTO (Homo sapiens, UniProt Q9C0B1); assay: Inhibition of N-terminal 31 residues truncated His-tagged human FTO demethylase activity expressed in Escherichia coli BL21(DE3) cells
# [7] = target: T1, RNA demethylase ALKBH5; assay: Inhibition of human ALKBH5 (66 to 292 residues) demethylase activity using 49 nt methylated ssDNA as substrate incubated for 2 hrs by GelRed staining based restriction endonuclease digestion assay
# [8] = target: T5, Alpha-ketoglutarate-dependent dioxygenase FTO; assay: Inhibition of N-terminal 31 residues truncated FTO (unknown origin) demethylase activity using m6A containing ssRNA as substrate incubated for 1 hr by LC-MS analysis
# [9] = target: T2, Alpha-ketoglutarate-dependent dioxygenase AlkB; assay: Inhibition of Escherichia coli AlkB-mediated demethylation using 40-mer single N3-meC containing ssDNA as substrate preincubated for 1 hr followed by substrate addition by fluorescence based assay
# [10] = target: T6, Alpha-ketoglutarate-dependent dioxygenase alkB homolog 3 (Homo sapiens) (UniProt Q96Q83); assay: Inhibition of ALKBH3 (unknown origin) at 50 uM relative to control
# T6 sequence (whole entry): T3 sequence (Q96Q83 whole entry)
# [11] = Oral bioavailability in rat; assay type: ADME, organism-based; conditions: in vivo
# [12] = target: T5, Alpha-ketoglutarate-dependent dioxygenase FTO; assay: Inhibition of human FTO (31 to 505 residues) demethylase activity using 15-mer ssRNA with CUUGUCA(m6A)CAGCAGA sequence as substrate incubated for 0.5 hrs by LC-MS/MS analysis
# [13] = target: T3, Alpha-ketoglutarate-dependent dioxygenase alkB homolog 3; assay: Inhibition of human ALKBH3 by HPLC analysis
# [14] = target: T4, DNA oxidative demethylase ALKBH2; assay: Inhibition of human ALKBH2 by HPLC analysis
# [15] = target: T2, Alpha-ketoglutarate-dependent dioxygenase AlkB; assay: Inhibition of Escherichia coli AlkB by HPLC analysis
# [16] = target: T5, Alpha-ketoglutarate-dependent dioxygenase FTO; assay: Inhibition of FTO (unknown origin) demethylation activity
# [17] = target: T3, Alpha-ketoglutarate-dependent dioxygenase alkB homolog 3; assay: Inhibition of ALKBH3 (unknown origin) using 3-methyl cytosine oligo DNA as substrate incubated for 1 hr by SYBR green dye based RT-PCR analysis
# T5 sequence (Q9C0B1 whole entry, the tested form may be a part): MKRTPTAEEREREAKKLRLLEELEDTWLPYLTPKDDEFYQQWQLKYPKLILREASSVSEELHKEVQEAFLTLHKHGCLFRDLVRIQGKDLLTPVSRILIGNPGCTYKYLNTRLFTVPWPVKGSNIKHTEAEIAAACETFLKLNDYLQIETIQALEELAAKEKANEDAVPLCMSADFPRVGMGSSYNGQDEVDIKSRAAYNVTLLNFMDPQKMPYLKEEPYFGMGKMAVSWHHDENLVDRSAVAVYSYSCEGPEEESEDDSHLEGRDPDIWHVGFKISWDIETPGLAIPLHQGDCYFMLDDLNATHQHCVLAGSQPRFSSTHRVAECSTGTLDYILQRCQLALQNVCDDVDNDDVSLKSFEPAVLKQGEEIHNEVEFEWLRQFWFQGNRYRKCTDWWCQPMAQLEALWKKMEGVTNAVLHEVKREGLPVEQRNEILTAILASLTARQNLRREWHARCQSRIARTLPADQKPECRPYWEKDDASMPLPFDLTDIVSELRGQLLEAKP
# T1 sequence (Q6P6C2 whole entry, the tested form may be a part): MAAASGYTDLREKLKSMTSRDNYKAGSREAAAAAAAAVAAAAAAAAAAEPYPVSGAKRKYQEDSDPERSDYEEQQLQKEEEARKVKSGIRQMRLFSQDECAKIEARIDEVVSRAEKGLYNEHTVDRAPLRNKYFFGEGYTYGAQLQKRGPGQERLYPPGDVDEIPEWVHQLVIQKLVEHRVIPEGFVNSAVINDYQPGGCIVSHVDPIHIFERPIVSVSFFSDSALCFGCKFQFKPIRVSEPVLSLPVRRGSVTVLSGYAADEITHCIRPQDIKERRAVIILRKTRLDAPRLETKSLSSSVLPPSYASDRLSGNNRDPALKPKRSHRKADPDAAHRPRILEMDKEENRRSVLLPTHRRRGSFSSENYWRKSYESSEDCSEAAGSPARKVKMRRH
structure (smiles),measurement,setting,value
O=C(O)c1ccc(O)c2ncccc12,IC50,[1],2.9 µM
same,IC50,[2],10.2 µM
Cc1ccc(Cl)c(Nc2ccccc2C(=O)O)c1Cl [MECLOFENAMIC ACID],IC50,[3],> 100 µM
same,IC50,[4],> 100 µM
same,IC50,[5],> 100 µM
same,IC50,[6],8 µM
O=C1OC2(c3ccc(O)cc3Oc3cc(O)ccc32)c2ccccc21 [FLUORESCEIN],IC50,[7],> 100 µM
same,IC50,[8],3.23 µM
O=C1c2ccc(-c3ccccc3)cc2C(NC2CCCCC2)C1Cl (configuration not stated),IC50,[9],19.4 µM
same,inhibition,[10],0%
Cc1ccc2[nH]c(-n3nc(C)cc3O)nc2c1,bioavailability,[11],7.2%
COc1cc2c(cc1Cl)C(C)(C)CC(C)(c1cc(Cl)c(O)cc1O)O2 (configuration not stated),IC50,[12],39.2 µM
O=C(O)c1cc(O)c2c(c1)C(=O)c1cccc(O)c1C2=O [RHEIN],IC50,[13],5.3 µM
same,IC50,[14],9.1 µM
same,IC50,[15],12.7 µM
CCN(CC)C(=O)/C(C#N)=C/c1cc(O)c(O)c([N+](=O)[O-])c1 [ENTACAPONE],IC50,[16],3.5 µM
Cc1nn(-c2nc3cc(F)ccc3[nH]2)c(O)c1-c1ccccc1,IC50,[17],2.9 µM
